# According to the RepoRT retention time repository (doi:10.1016/j.foodchem.2021.129757):
# Structures can show the parent of a compound that is named as a salt.
# Test: RP, Waters ACQUITY UPLC HSS T3, 100 × 2.1 mm, 1.8 µm, 30 °C, 0.4 mL/min, estimated dead time 0.55 min; A: water + 0.1% formic acid, pH 3; B: acetonitrile + 0.1% formic acid, pH 3; gradient (min/%B) 0/0 2/0 15/100 22/100 22.1/0 26/0
# Details: stereoisomer not certain
row,LC retention time [min],SMILES
1,10.6,OCC(Cc1cccc(O)c1)C(CO)Cc1cccc(O)c1 (stereo not drawn) [Enterodiol]

# Test: RP, Waters ACQUITY UPLC BEH C18, 100 × 2.1 mm, 1.7 µm, 65 °C, 0.4 mL/min, estimated dead time 0.55 min; A: water + 0.1% formic acid, pH 3; B: 80% acetonitrile + 20% acetone + 0.1% formic acid, pH 3; gradient (min/%B) 0/0 5/100 5.5/0 6/0
# Details: stereoisomer not certain
row,LC retention time [min],SMILES
1,2.86,"COc1cc(CC2COC(=O)C2Cc2ccc(O)c(OC)c2)ccc1O (single isomer, unassigned; (-)) [(-)-Matairesinol]"
2,2.36,"COc1cccc(OC)c1O [2,6-Dimethoxyphenol]"
3,1.72,CC(C)C(O)(CC(=O)O)C(=O)O (stereo not drawn) [2-Isopropylmalic acid]
4,1.37,O=C1CCCCN1 [2-Piperidinone]
5,1.99,CC1(O)Cc2c(O)cc(O)cc2OC1c1ccc(O)c(O)c1 (stereo not drawn) [3-Methylepicatechin]
6,2.06,O=C(O)CC(O)c1ccccc1 (stereo not drawn) [3-hydroxy-3-phenylpropionic acid]
7,2.18,COc1cc(C(C)=O)ccc1O [4'-Hydroxy-3'methoxyacetophenone]
8,2.03,Cc1cc(C(=O)O)ccc1O [4-Hydroxy-3-methylbenzoic acid]
9,2.32,O=Cc1c[nH]c2ccccc12 [Indole-3-carbaldehyde]

row,SMILES,LC retention time [min]
1,C=C1CCC(O)CC1=CC=C1CCCC2(C)C1CCC2C(C)C=CC(C)C(C)(C)O (stereo not drawn) [25-Hydroxyvitamin-D2],5.07

# Test: RP, Agilent InfinityLab Poroshell 120 EC-C18, 100 × 3 mm, 2.7 µm, 25 °C, 0.4 mL/min, estimated dead time 1.1 min; A: water + 0.1% formic acid, pH 3; B: acetonitrile + 0.1% formic acid, pH 3; gradient (min/%B) 0/5 10/25 20/40 24/90 25/90 26/5 30/5
# Details: stereoisomer not certain
row,LC retention time [min],SMILES
1,6.5,O=C1CCC(Cc2ccc(O)c(OS(=O)(=O)O)c2)O1 (stereo not drawn)
2,10.6,O=C1CCC(Cc2cccc(O)c2)O1 (stereo not drawn)
3,6.49,"O=C(O)c1c(O)cccc1O [2,6-Dihydroxybenzoic acid]"
4,8.83,O=C(O)C1OC(Oc2ccc(-c3coc4cc(O)ccc4c3=O)cc2)C(O)C(O)C1O (stereo not drawn) [Daidzein 4'-O-glucuronide]
5,7.51,O=C(O)C1OC(Oc2ccc3c(=O)c(-c4ccc(O)cc4)coc3c2)C(O)C(O)C1O (stereo not drawn) [Daidzein 7-O-glucuronide]
6,9.85,O=c1c(-c2ccc(O)cc2)coc2cc(OS(=O)(=O)O)ccc12 [Daidzein sulfate]
7,13.5,OCC(Cc1cccc(O)c1)C(CO)Cc1cccc(O)c1 (stereo not drawn) [Enterodiol]
8,11.6,O=S(=O)([O-])Oc1ccc(C2COc3cc(O)ccc3C2)cc1 (stereo not drawn) [Equol sulfate]
9,10.7,O=C(O)C1OC(Oc2ccc(-c3coc4cc(O)cc(O)c4c3=O)cc2)C(O)C(O)C1O (stereo not drawn) [Genistein 4'-O-glucuronide]
10,13.3,COc1ccc(C2CC(=O)c3c(O)cc(O)cc3O2)cc1OS(=O)(=O)O (stereo not drawn) [Hesperetin 3'-O-sulfate]
11,12.6,COc1ccc(C2CC(=O)c3c(O)cc(OS(=O)(=O)O)cc3O2)cc1O (stereo not drawn) [Hesperetin 7-sulfate]
12,12.7,O=c1oc2cc(O)ccc2c2cc(O)ccc12 [Isourolithin  A]
13,8.44,O=C(O)C1OC(Oc2ccc3c(c2)oc(=O)c2ccc(O)cc23)C(O)C(O)C1O (stereo not drawn) [Isourolithin A glucuronide]
14,23.8,Cc1c(O)cc2c(c1O)C(=O)c1ccccc1C2=O [Rubiadin]
15,8.08,COc1cc(CC(COC2OC(CO)C(O)C(O)C2O)C(COC2OC(CO)C(O)C(O)C2O)Cc2ccc(O)c(OC)c2)ccc1O (stereo not drawn) [Secoisolariciresinol diglucoside]
16,9.67,O=c1oc2cc(OS(=O)(=O)O)ccc2c2ccc(O)cc12 [Urolithin A-3-sulfate]
17,12.7,O=c1oc2cc(OS(=O)(=O)O)ccc2c2ccccc12 [Urolithin B-3-sulfate]
18,9.62,O=c1oc2cc(O)ccc2c2c(O)c(O)c(O)cc12 [Urolithin M6]
19,11.2,O=c1oc2cc(O)ccc2c2c(O)cc(O)cc12 [Urolithin M7]
20,18.6,O=C1c2ccccc2C(=O)c2c1cc(O)c(CO)c2O [lucidin]

row,SMILES,LC retention time [min]
1,Oc1ccc(CCc2cc(O)cc(O)c2)cc1 [Dihydroresveratrol],12.8
2,O=S(=O)(O)Oc1ccc(C=Cc2cc(O)cc(O)c2)cc1 [Resveratrol 4'-sulfate],10
